# Laboratory results as given in ChEMBL document CHEMBL3507680, “University of Dundee, Gates Library screen for HepG2 cell viability”.
# Experiment: Human HepG2 cell viability assay in 384 well format
# Type: toxicity, cell-based
# Design: dose 125 nL, time 70.5 hour; cytotoxicity at 70.5 h: concentration not given beside the values
# Conditions: HepG2 cells, read-out: Inhibition
row,Structure (SMILES),cytotoxicity at 70.5 h [%]
1,c1ccc2c(c1)CC(n1ccnc1-c1cc3n(n1)CCCNC3)CO2 (stereo not drawn),-6.83
2,CCCC(=O)NCc1cc(Br)c(OC)c(OC)c1,-6.96
3,CC(C)c1nnc(NC(=O)N2CCN(C)CC2c2ccccc2)s1 (stereo not drawn),9.58
4,Cc1ccccc1CN1C[C@@H]2COC[C@]2(CNC(=O)C2CCC2)C1,-7.13
5,COCC(=O)Nc1cc(S(=O)(=O)C(F)(F)F)ccc1OC,2.14
6,CCC(NC(=O)Nc1ccc(OC)c(C)c1)c1ccncc1 (stereo not drawn),-4.85
7,O=C1CCCN1Cc1nnn2c1CN(c1cccnc1)CCC2,-8.56
8,O=C(NCCn1ccnc1)c1cccc(Br)c1,-13
9,CCOC(=O)N1CCN(C(=O)c2cc(-c3ccc(Cl)cc3Cl)on2)CC1,0.435
10,CCC(=O)N1CCC(Cc2nccnc2Nc2ccccn2)CC1,20.4
11,CN(C)CCNC(=O)c1ccc(OC2CCN(CC3CC3)CC2)c(Cl)c1,0.798
12,CC(C)CSc1ccc(-n2cccn2)nn1,27.6
13,CC(C)NC1CCc2c(ccc(=O)n2CCN2CCOCC2)C1 (stereo not drawn),-6.6
14,CC(=O)NCCCC(=O)N1CCc2[nH]c(-c3ccccc3)nc2C1,-5.92
15,CC(C)COCCC(=O)Nc1c(-c2ccc(F)cc2)ncn1C,-2.98
16,CC(C)(C(N)=O)N1CCN(C(=O)c2ccn(-c3cccc(Cl)c3)n2)CC1,-0.38
17,CC(=O)N1CCC(C(=O)Nc2nc(C3CC3)cs2)CC1,-4.64
18,CC(NC(=O)N(C)Cc1ccsc1)c1ccc2c(c1)NC(=O)CO2 (stereo not drawn),-9.52
19,O=C(C1COc2ccccc2C1)N(CCO)Cc1ccccc1 (stereo not drawn),-1.94
20,CC(C)CS(=O)(=O)CC(=O)NC1CCCCNC1=O (stereo not drawn),-7.58
21,CC1(c2ccc(Br)cc2)CC(=O)N(CCC#N)C1=O (stereo not drawn),32.5
22,Cc1ccccc1CN1C[C@@H]2CC[C@H](C1)N(CC1CCC1)C2=O,-4.63
23,CN(C)CCCn1ccnc1C1CCN(C(=O)Cc2cccnc2)CC1,9.19

row,Structure (SMILES),cytotoxicity at 70.5 h [%]
1,O=C1CN(C(=O)C2CN(c3ccc(F)cc3)CCO2)CCN1 (stereo not drawn),-7.29
2,O=C(c1ccc(F)cc1)N1C[C@H]2CCC[C@@]2(COCc2ccccn2)C1,-15.6
3,COc1ccc(-c2noc(CN3CCOCC3C)n2)cc1OC (stereo not drawn),-10.5
4,Cc1cnc(C(=O)N2CC[C@@H]3CN(c4ncccn4)CCO[C@@H]3C2)cn1,-4.8
5,O=C(NCCNc1ccccn1)Nc1cc(C(F)(F)F)c[nH]c1=O,-3.73
6,Cc1cnn(-c2cccc(N3CCCC3)n2)c1,-1.27
7,Cc1ccc2nc(C3CCCN3Cc3scnc3C)[nH]c2c1 (stereo not drawn),-6.86
8,CN(C)C(=O)CN1C[C@H]2CCN(C(=O)c3ccncc3)CC[C@H]2S1(=O)=O,-3.99
9,CC1CCc2nc(O)c(C(=O)NCc3ccncc3)cc2C1 (stereo not drawn),5.88
10,COCc1noc(-c2ccc(N3CCCCC3CCCO)nc2)n1 (stereo not drawn),-3.48
11,CCN1CCN(c2ccc(CNC(=O)c3cnn(C)c3C)cn2)CC1,-8.48
12,Cc1nc2n(n1)CC(NCc1csc(-c3ccsc3)n1)CC2 (stereo not drawn),-8.64
13,CS(=O)(=O)CCSCc1cccc2cccnc12,-4.91
14,Cc1nnsc1CN(C)C(=O)CN1CC2(CCNCC2)OC1=O,-2.76
15,Cc1ccc(F)c(N2CCCC(NS(=O)(=O)CCCF)C2=O)c1 (stereo not drawn),-11.4
16,Cc1noc(C2CCCN(Cn3cc(Cl)cn3)C2)n1 (stereo not drawn),-1.46
17,COCCCNC(=O)Nc1ccc(OCc2noc(C3CC3)n2)cc1,-11.8
18,COc1cc(NC(=O)NC2CCOCC2)ccc1N1CCOC1=O,6.14
19,Cc1noc(C)c1C(=O)N1C[C@H]2CC[C@@H]1CN(c1cnccn1)C2,-5.44
20,COc1cc(C)nc(N2CCN(Cc3nccn3C)CC2)n1,0.0501
21,Cc1cnn(CC2CN(CCCc3nc4ccccc4o3)CCO2)c1 (stereo not drawn),-0.695
22,Cc1ccc(S(=O)(=O)N2CCN(CCC#N)CC2)s1,7.61
23,O=C([C@H]1C[C@H]2[C@H](CCN2Cc2cccs2)O1)N1CCOCC1,-16.9

row,Structure (SMILES),cytotoxicity at 70.5 h [%]
1,COCCO[C@H]1CCN(C(=O)C2CCOCC2)[C@H]1Cc1ccncc1,29.3
2,O=C(Cc1cccc2cccnc12)N1CCCN(c2cccnn2)CC1,-11
3,CCCn1cc(NC(=O)c2cccnc2O)ccc1=O,-1.07
4,Cn1cc(C2CCCN2C(=O)CCCc2nc3ccccc3[nH]2)cn1 (stereo not drawn),4.56
5,COc1ccc2c(OCC(=O)NCC(F)(F)F)ccnc2c1,-15.8
6,Cn1cc(CN2CCC(c3cc(COc4cccc(Cl)c4)[nH]n3)C2)cn1 (stereo not drawn),-0.141
7,CCN(c1ccc(C(=O)N2CCCC2)cc1)S(=O)(=O)CC,-10.8
8,CCC(C(=O)NCc1csc(-c2ncccn2)n1)n1cccn1 (stereo not drawn),13
9,O=C(CCn1cc(Cl)cn1)N1CCC2(CC1)OCCCC2O (stereo not drawn),12
10,Cc1cc(CNC(=O)NCCOc2ccc(F)c(F)c2)on1,-6.89
11,O=C(NCC1CCOCC1)[C@@H]1C[C@@H]2[C@@H](CCN2Cc2nccs2)O1,-12.1
12,Cc1nc(-c2ccc(C(=O)O)cc2)cc(C2CCN(C(C)C)C2)n1 (stereo not drawn),-9.52
13,COCCOc1ccccc1CNCC1COC2(CCCC2)O1 (stereo not drawn),0.252
14,CN(C)C(=O)c1nc(CN2CC(Cc3ccccc3)CC2=O)no1 (stereo not drawn),-2.6
15,Cn1c(=O)n(C)c2nc(Cl)c(CC(=O)c3ccc(F)cc3)n2c1=O,0.873
16,CCc1nc(C2CCCN(C(=O)c3cccnc3O)C2)no1 (stereo not drawn),-0.758
17,O=C(NC[C@H]1OC[C@@H]2CCN(C3CCOCC3)C[C@@H]21)c1ccncc1,-3
18,Cc1ccc(CN(CCCn2ccnc2)Cc2c[nH]nc2C(C)(C)C)s1,-0.375
19,c1cc(CN2CCCC23CCCN(Cc2ccoc2)C3)ccn1 (stereo not drawn),-3.1
20,CC(=O)N1Cc2ccccc2C[C@H]1C(=O)N(C)CCc1ccccn1,19.3
21,CN(C)CCN1CCOCC2(CCCN(C(=O)c3ccoc3)C2)C1 (stereo not drawn),1.59
22,CN(CC(=O)N1CCC(N(C)c2ccccc2)CC1)c1cnccn1,0.531
23,O=C(c1cn(CCN2CCCCC2)nn1)N1CCSCC1,-1.47

row,Structure (SMILES),cytotoxicity at 70.5 h [%]
1,CCN(Cc1nc(COC)no1)Cc1cccnc1NC,-21.9
2,Cc1cc(C)n(CC(=O)N2CCCCC2CCN(C)C)c(=O)n1 (stereo not drawn),-7.91
3,CNC(=O)[C@@]12CCC3(CCN(C(=O)COC)CC3)[C@@H]1CN(S(C)(=O)=O)C2,4.47
4,CCOC(=O)c1ccccc1NC(=O)CN(C)Cc1ccccc1Cl,3.31
5,Cn1cc(CN2CCC3(CC2)COC(COc2ccccn2)C3)cn1 (stereo not drawn),-14.7
6,CCN1CC(Oc2ccc(Cl)cc2)=NC(SCC(=O)c2ccccc2)=N1,12.1
7,Cc1cn2cc(C(=O)NC3CCCN(c4ncccn4)C3)ccc2n1 (stereo not drawn),1.08
8,Cc1nnc(NCc2cccc(OCc3ccccn3)c2)c(C#N)c1C,-4.44
9,CC(C)Cc1noc(CN2CCCC(Cn3cncn3)C2)n1 (stereo not drawn),3.45
10,COC(=O)NCC(=O)NC1CC(C)(C)Cc2oc(C)cc21 (stereo not drawn),1.57
11,O=C(CCS(=O)(=O)c1ccccc1)NCCCn1cccn1,-16.1
12,Cc1noc(-c2cccnc2N(C)Cc2cscn2)n1,-5.46
13,Cc1cc(CNC2CCCN(Cc3noc(C4CC4)n3)C2)on1 (stereo not drawn),23.9
14,CSCc1noc(CN2CCC3(CC2)CC(=O)N(CC=C(C)C)C3)n1,-11.8
15,Cc1cccc(CN2C(=O)CCC23CCN(C(=O)NC(C)C)CC3)n1,-2.54
16,CCN1CC(C(=O)NCCc2csc(-c3ccncc3)n2)CC1=O (stereo not drawn),-4.27
17,COc1cccc(CNCc2ccc(F)cc2Cl)c1O,-1.41
18,COCCc1noc(CN2CCCC2c2noc(C)n2)n1 (stereo not drawn),-0.394
19,COCCOCC(=O)NCc1ccc(N(C)C)nc1,-5.23
20,C[C@]1(O)CN(Cc2cscn2)CC[C@@H]1Oc1cccc(F)c1,-3.07
21,O=C(COc1coc(CN2CCOCC2)cc1=O)Nc1ccccc1F,-12
22,COCCN1C[C@@H]2[C@@H](OC)CCN(C(=O)Cc3ccccc3)[C@@H]2C1,-1.17
23,CCN(CC)S(=O)(=O)NC1CCCc2nc(-c3ccccc3)ncc21 (stereo not drawn),-7.72

row,Structure (SMILES),cytotoxicity at 70.5 h [%]
1,c1ccc(Cc2noc(CN3CCOC(Cn4cccn4)C3)n2)cc1 (stereo not drawn),-3.64
2,O=C(Cn1ccnc1)N1C[C@@H]2CC[C@H](Oc3ccccc3Cl)[C@@H]2C1,1.01
3,Cc1nc2c(c(N(C)CC3Cc4ccccc4CN3C)n1)CCNCC2 (stereo not drawn),11.4
4,COc1cc(Cl)c(NC(=O)c2cc3c([nH]c2=O)CCCC3=O)cc1OC,-7.89
5,CCn1cnnc1CNC(=O)N1CCC(Cc2cccnc2)CC1,34.8
6,CCCOC1CCCN(c2ccnc(C(=O)NCc3ccco3)c2)C1 (stereo not drawn),-8.53
7,CCOCCNC(=O)Nc1ccc(OCc2noc(C3CC3)n2)cc1,-7.9
8,Cc1nc(C2CCCN(C(=O)C3=NN(C(C)C)C(=O)CC3)C2)no1 (stereo not drawn),-9.12
9,CCOC(=O)c1coc(N2CCN(Cc3cccc(OC)c3)C(=O)C2)n1,4.55
10,Cc1nc(C)c(C(=O)N2Cc3ccccc3OCC2Cn2ccnc2)o1 (stereo not drawn),-1.03
11,Cc1ccc(C(CNCc2ccncc2)N2CCOCC2)s1 (stereo not drawn),18.9
12,CCc1cnc(CN(C)C2CCN(CCNS(=O)(=O)CC)C2)o1 (stereo not drawn),2.11
13,CCn1cnnc1CNc1nc(C)nc2scc(CC(C)C)c12,-15.9
14,CCOc1ccc(NS(=O)(=O)c2cc(C)c(C(=O)O)s2)c(C)c1,-3.91
15,CCOC1Sc2nnc(C)n2N=C1c1ccc(F)cc1 (stereo not drawn),-5.95
16,Cc1nc(CN2CCOC(c3nc(C(C)C)n[nH]3)C2)oc1C (stereo not drawn),6.2
17,CNC(=O)c1cccnc1NCc1ccc(Cn2cccn2)cc1,-3.1
18,CSCc1nc(CNC(=O)C2CCCN(C(=O)N(C)C)C2)cs1 (stereo not drawn),-7.03
19,Cc1nc(C)n(CC2CCCN2CCOc2cccc(F)c2)n1 (stereo not drawn),-9.85
20,CC(NC1CCN(CC(=O)N(C)C)CC1)c1cnn(C(C)C)c1 (stereo not drawn),-14.3
21,c1cnnc(N2CCCC2CNCc2csc(-c3ccco3)n2)c1 (stereo not drawn),-11.5
